According to a melting point compilation (Tetko et al.; mined from patent text by program, amines drawn as free bases though some values may be those of a salt):

`CC(=O)n1ccc(-c2ccc(C(=O)N3Cc4cccn4Cc4ccccc43)cc2)n1` gave a melting point of 192 to 194 °C.
Work on `Cn1c(Oc2ccc(-n3c4ncccc4n4ccnc34)cc2)nc2ccccc21` yielded a melting point of 232 to 234 °C.
Work on `CCOC(=O)N1CCC(=C2c3ccccc3CCn3ncnc32)CC1` yielded a melting point of 106 °C.
`Cc1cccc(-c2n[nH]cc2-c2ccc(F)c(-c3ncc(C(C)(C)O)cn3)c2)n1` showed a melting point of 162 °C.
With `CC(C)(C)OC(=O)NCCNC(=O)c1ncsc1-c1cccc(OCc2cccc(C#N)c2)c1` the melting point was 115 °C.
With `CCCN(CO)c1nc(NCc2ccccc2)c2nc(Cl)n(C(C)C)c2n1` the melting point was 220 to 223 °C.
Work on `CCOC(=O)N1C=CC2=NC(C)=NC(N(C)c3ccccc3)N21` (stereo not given) yielded a melting point of 202 °C.
For `O=C1CC(c2ccc(F)cc2)c2ccccc21` (stereo not given), the melting point was 120 to 121 °C.
For `C[C@H]1C[C@@]2(N)CN(c3c(F)cc4c(=O)c(C(=O)O)cn5c4c3OC[C@@H]5C)C[C@@H]12`, the melting point was 122 to 124 °C.
`CCCCCCCCCCCCCCOc1ccc(CNC(=O)NCc2ccccn2)cc1` gave a melting point of 108 to 109 °C.
With `COc1ccc(-c2[nH]nc3c2C(=O)c2c(NC(=O)NNC(=O)c4ccccc4)cccc2-3)cc1` the melting point was over 300 °C.
Compound `CCc1nn(CC(N)=O)c(CC)c1Oc1cc(Cl)cc(Cl)c1` has a melting point of 164 to 166 °C.
In the case of `COC(=O)C12C3C4C1(C(=O)OC)C1(Cl)C2C3(C(=O)OC)C41C(=O)OC` (stereo not given), the melting point was 134 to 135 °C.
Work on `COC(=O)C(=O)NC(=O)N1CCCCC1` yielded a melting point of 92 to 93 °C.
`Cc1cccc(N2C(=S)SCC2(O)CC(C)C)n1` (stereo not given) gave a melting point of 95 °C.
For `C[C@@H]1CN(C(=O)OC(C)(C)C)C[C@H]2Cc3cc(F)cnc3N21`, the melting point was 56.6 to 58.4 °C.
Work on `O=C1c2ncccc2C(=O)c2c(-c3ccccc3NC(=O)C(F)(F)F)ccnc21` yielded a melting point of 205 °C.
In the case of `CC(=O)SCC(Cc1ccccc1)C(=O)Nc1ccc(N2CCCC2)c(C(=O)O)c1` (stereo not given), the melting point was 176 to 178 °C.
For `COc1cc(C(C)C)c2c(c1)S(=O)(=O)N(COc1cc(C(F)(F)F)nn1-c1ccncc1)C2=O`, the melting point was 161 to 162 °C.
With `COc1cc(OC)cc(C2=N[C@H]3CCN(C)C[C@H]3c3ccccc32)c1` (relative stereo) the melting point was 123 to 124 °C.
For `COc1ccc(C(=O)Nc2cc(C)cc(C)c2)cc1N`, the melting point was 155 to 162 °C.
With `CC(=O)NCCNC(=O)c1ccc(Br)s1` the melting point was 244 to 245 °C.
Work on `CCCCc1nc2ccccc2c(=O)n1Cc1ccc(-c2ccccc2-c2nnn[nH]2)cc1` yielded a melting point of 180 to 182 °C.
Compound `O=C(Cc1ccccc1)c1ccc(OCC2CO2)cc1` (stereo not given) has a melting point of 81 to 82.4 °C.
`CC1(C)CCc2c(-c3ccco3)nc3sc4c(NCCN5CCOCC5)ncnc4c3c2C1` gave a melting point of 123 to 125 °C.
`CCn1cc(C(=O)NCc2ccc(Cl)cc2)c(=O)c2cc(CN(C)C[C@@H](O)c3ccccc3)sc21` gave a melting point of 100 to 102 °C.
Compound `CC(C)Nc1cccnc1N1CCN(C(=O)c2ccc(C(=O)O)cn2)CC1` has a melting point of 211 to 214 °C.
`O=[N+]([O-])c1ccc2c(c1)SC1=NCCCN12` gave a melting point of 248 °C.
Work on `CCCCc1nn(Cc2ccc(C(=O)O)cc2)c2ccccc2c1=O` yielded a melting point of 220 °C.
`Cc1ccc(C2Sc3ccccc3NC(=O)C2CO)cc1` (stereo not given) showed a melting point of 229 °C.
Compound `CN1CCC(c2nc(-c3ccccc3)c3ccccc3n2)CC1` has a melting point of 83 to 86 °C.
For `CC(C)(C)C1(O)CCCCC1`, the melting point was 49 to 50 °C.
With `CCn1cc(C(=O)O)c(=O)c2cc(F)c(N3CCN(C)C(c4ccco4)C3)cc21` (stereo not given) the melting point was 209 to 212 °C.
Compound `CS(=O)(=O)Nc1ccc(C#Cc2cnn3c(C(F)(F)F)cc(-c4ccc(C(F)(F)F)cc4)nc23)cn1` has a melting point of 261 to 263 °C.
Work on `COC(=O)Nc1nc2ccc(O)cc2[nH]1` yielded a melting point of 300 °C.
`CS(=O)(=O)c1ccccc1-c1ccc(C(=O)N2Cc3ccc(C(=O)NCc4cccnc4)n3Cc3ccccc32)cc1` showed a melting point of 153 to 156 °C.
Compound `Cc1ccc(N2C(=O)C3=C(CCCC3)C2=O)c2c1OC(C)C2` (stereo not given) has a melting point of 158 to 160 °C.
With `Cn1cnc2c(=S)[nH]ccc21` the melting point was over 300 °C.
Work on `COc1ccc(-c2cc(C)cn2-c2ccc(S(N)(=O)=O)cc2)cc1F` yielded a melting point of 170 to 173 °C.
With `O=C(NNC(=O)C(O)c1cccc(O)c1)c1c(O)cc(O)cc1Cl` (stereo not given) the melting point was 230 to 231 °C.
`Cc1c(Cc2cccc(C(F)(F)F)c2)sc2c(-c3cc(F)cc(C(=O)O)c3)cccc12` showed a melting point of 168 to 169 °C.
With `CCOC(=O)c1cc2ccc3oc4ccccc4c3c2n1C` the melting point was 114 to 116 °C.
With `Nc1ccc(S(=O)(=O)c2cc(Cl)nc(N3CCCC3)c2)cc1` the melting point was 225 to 226 °C.
Work on `CCCc1ccc(-c2ncc(C#N)cn2)cc1` yielded a melting point of 126 °C.
Compound `COc1cc2c(cc1O)CN(C(=O)OC(C)(C)C)CC2` has a melting point of 80 to 83 °C.
`COc1ccccc1NC(C#N)c1c(Cl)cccc1Cl` (stereo not given) showed a melting point of 118 °C.
With `C=c1oc(=O)c(=O)oc1=C` the melting point was 44 °C.
With `Cc1cc(Oc2ccc(Cl)nn2)c(C)cc1N` the melting point was 138 to 140 °C.
In the case of `CC12CC3OC3CC1CCC1C2CCC2(C)C(O)C(N3CCCC3)CC12` (stereo not given), the melting point was 156 to 160 °C.
`CN1CCN(c2cc(Cl)c3c(c2)N(Cc2ccccc2)C(=O)N(Cc2cccc(O)c2)S3(=O)=O)CC1` showed a melting point of 170 to 172 °C.
